Values of other authors as cited in US20140302178A1, “Natural Product for Decreasing Symptoms During Viral Infections” (priority 2013, published 2014).

Test system: Herpes Simplex Virus (HSV)
Settings: oral antiviral therapy; pooled meta-analysis

Row | Compound | decrease of outbreak duration and the associated pain [days]
1 | Nc1nc2c(ncn2COCCO)c(=O)[nH]1 [aciclovir] | 1
2 | CC(=O)OCC(CCn1cnc2cnc(N)nc21)COC(C)=O [famciclovir] | 1
3 | CC(C)[C@H](N)C(=O)OCCOCn1cnc2c(=O)[nH]c(N)nc21 [valaciclovir] | 1
